Values quoted from earlier work in patent publication US20180094248A1, “Necroptosis Signaling as a Therapeutic Target for Alzheimer's Disease” (Arizona Board of Regents on behalf of Arizona State …, priority 2016, published 2018).

Key:
RIPK3 = RIPK3 (Homo sapiens, UniProt Q9Y572); settings: Kaiser et al., 2013, J. Biol. Chem. 288:31268; cited from earlier work
MLKL = molecular target: T1, MLKL (Homo sapiens, UniProt Q8NB16); settings: Sun et al., 2012, Cell 148:213-27; cited from earlier work
T1 sequence (Q8NB16 1-471): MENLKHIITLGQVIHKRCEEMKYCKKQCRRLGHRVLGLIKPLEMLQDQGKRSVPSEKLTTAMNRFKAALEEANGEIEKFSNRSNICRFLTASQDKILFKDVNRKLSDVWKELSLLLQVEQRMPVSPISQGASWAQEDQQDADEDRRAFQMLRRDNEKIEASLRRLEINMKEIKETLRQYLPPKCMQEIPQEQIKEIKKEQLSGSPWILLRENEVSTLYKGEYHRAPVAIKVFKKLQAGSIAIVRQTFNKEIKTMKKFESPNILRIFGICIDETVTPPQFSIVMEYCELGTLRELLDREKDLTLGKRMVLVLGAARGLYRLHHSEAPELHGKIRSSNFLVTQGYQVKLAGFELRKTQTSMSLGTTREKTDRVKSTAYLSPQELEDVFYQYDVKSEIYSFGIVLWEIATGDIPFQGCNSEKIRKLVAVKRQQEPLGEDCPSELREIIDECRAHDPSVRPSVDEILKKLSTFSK

RIPK3, sequence (Q9Y572 whole entry): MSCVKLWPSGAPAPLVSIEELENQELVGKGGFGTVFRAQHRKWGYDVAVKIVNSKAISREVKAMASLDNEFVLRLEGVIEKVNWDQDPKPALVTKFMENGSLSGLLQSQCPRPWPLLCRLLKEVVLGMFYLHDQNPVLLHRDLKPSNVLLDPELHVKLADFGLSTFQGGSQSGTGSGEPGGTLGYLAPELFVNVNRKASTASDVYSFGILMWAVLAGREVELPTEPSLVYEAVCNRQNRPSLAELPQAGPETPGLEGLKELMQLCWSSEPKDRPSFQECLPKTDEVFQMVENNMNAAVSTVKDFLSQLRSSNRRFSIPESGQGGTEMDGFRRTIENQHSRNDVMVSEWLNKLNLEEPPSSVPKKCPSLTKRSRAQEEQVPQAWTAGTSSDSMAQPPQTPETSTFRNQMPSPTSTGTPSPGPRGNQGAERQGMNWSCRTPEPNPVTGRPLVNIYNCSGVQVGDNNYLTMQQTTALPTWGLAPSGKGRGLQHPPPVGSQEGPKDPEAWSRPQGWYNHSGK

Compound | inhibition of RIPK3 (selectivity) (RIPK3) | inhibition of MLKL (selectivity) (MLKL)
CC(C)S(=O)(=O)c1ccc2nccc(Nc3ccc4scnc4c3)c2c1 [GSK'872, N-(6-(Isopropylsulfonyl)quinolin-4-yl)benzo[d]thiazol-5-amine] | selectively inhibits RIPK3 | 
COc1nccnc1NS(=O)(=O)c1ccc(NC(=O)/C=C/c2ccc([N+](=O)[O-])s2)cc1 [necrosulfonamide, (E)-N-[4-[[(3-Methoxy-2-pyrazinyl)amino]sulfonyl]phenyl]-3-(5-nitro-2-thienyl)-2-propenamide] |  | selectively inhibits MLKL
